# “Also recorded” adds a separate entry of the source.
# How the values were obtained:
# [1] = system: Human vascular endothelial cells (HUVECs); test: MCP-1 secretion from vascular endothelial cells, ELISA; type: cell-based; details: D-psicose 0, 5.6, 11.2 mM, 24 hours
# Method: Human vascular endothelial cells (HUVECs) were cultured under the culture medium condition of (DMEM +10% FBS) in accordance with the ordinary method. HUVECs at concentration of about 70% were pipitted into a 96-well culture dish, and the following experiments were performed.
# D-psicose was added to the HUVECs culture medium at concentrations of 0 mM, 5.6 mM and 11.2 mM. After cultivation for 24 hours, MCP-1 in the culture medium was measured by using an ELISA (Quantikine, R&D) kit.
# HUVECs were pretreated for 1 hour with cytokines acting upon HUVECs and stimulating secretion of MCP-1, i.e., IL-1β (maximum secretion stimulus concentration of 1 ng/mL), and TNF-α (maximum secretion stimulus concentration of 10 ng/mL). Then, D-psicose was added at concentrations of 0 mM, 5.6 mM and 11.2 mM, and after 24-hour cultivation, the MCP-1 concentration in the culture medium was measured by using the ELISA kit. […] The secretion of MCP-1 in the vascular endothelial cells is stimulated by cytokines (IL-1β, TNF-α) at maximum secretion stimulus concentration of 1 ng/mL for IL-1β and 10 ng/mL for TNF-α.
# KS-1 = test: blood-system cancer cell strain proliferation, Coulter Counter, KS1; type: cell-based; details: 0.05-50 mM, 7 days, D-glucose control
# Method: (§1) (2) Method: Total 6 kinds of cell strains, i.e., Myeloid (HL-60, THP-1, KG-1), T-cell (MT-2), and B-Cell (Daudi, KS-1), and 3 kinds of rare saccharides (i.e., D-psicose, D-altrose, and D-allose), were employed. The culture medium and the cells were prepared to be 1 mL in total and 1×10^5 in number, respectively. Then, the cell number at each of fourth day and seventh day was counted by using a Coulter Counter. Each rare saccharide was added at concentrations of 0.05, 0.5, 5 and 50 mM, while D-glucose was used as a control.
# (§2) Culture Medium: FBS 10% added RPMI1460
# (§3) Cultivation Conditions: 37° C., 5% CO2
# (§4) Cultivation Vessel: FALCON, MULTIWELL, 12 wells
# (§5) Number of Cultivation Days: 7 days
# (§6) Saccharides Concentration: 0.05, 0.5, 5, 50 mM
# [2] = system: glutamate release from hippocampus; test: temporary brain ischemia, glutamate outside hippocampus neurons by micro-dialysis; type: in vivo, gerbil
# Method: (2) Method: The bilateral common carotid artery of a gerbil was shut off for 5 minutes. After 1 week, the gerbil was sacrificed and a sample was prepared in accordance with the ordinary method, followed by hematoxyline eosin dyeing. The survival rate was measured by counting the number of hippocampus neurons while looking at them under a microscope. Experiments were performed on a normal control group, a group subjected to only ischemia, and a group administrated with 200 mg/kg of D-allose or D-psicose before ischemia. It is known that glutamates released in large amount from the neurons with ischemia are toxic to the neurons. Such a point was examined by fixing the gerbil to a brain position fixing device, perfusing a solution, in which oxidase glutamate is dissolved, to the hippocampus through a probe for micro-dialysis, and measuring the glutamate concentration outside the hippocampus neurons. Also, the inventors have clarified the relationship between the metabolism of glucose and the action mechanism of D-allose with ischemia by pre-administrating D-allose and 2-deoxiglucose.
# THP-1 = test: blood-system cancer cell strain proliferation, Coulter Counter, THP1; type: cell-based; details: 0.05-50 mM, 7 days, D-glucose control
# Method: as §1, §2, §3, §4, §5, §6
# [3] = system: temporary eye ischemia model (rat); test: retina ischemia-reperfusion, glutamate by microdialysis; type: in vivo; details: D-allose 200 mg/kg intravenous before the ischemia
# Method: (1) Purpose: This Example 6 is intended to study an influence of D-allose upon the retina in a temporary eye ischemia model (rat). (2) Method: The temporary eye ischemia model was prepared by raising the intraocular pressure up to a level of about 120 mmHg. The model was subjected to ischemia for 45 minutes and then to reperfusion. The concentration of glutamate released in the ischemia-reperfusion process was measured by the microdialysis method.
# [4] = system: skin keratinocyte (HaCaT); test: proliferation of cultured cells, MTT method, HaCaT; type: cell-based, human; details: saccharide 50 mM, 4 to 5 days
# Method: (§7) Various kinds of rare saccharides were added at a concentration of 50 mM to culture media under the following conditions, and an influence of each rare saccharide upon the progress of proliferation of cancer cell strains was examined.
# (§8) (1) Target cells to which the rare saccharides were added: Hepatic cancer cells (HepG2), uterine cancer cells (He1a), ovary cancer cells (OVCAR3), and skin keratinocyte (HaCaT) were selected as target cells to which the rare saccharides were added.
# (§9) (2) Rare saccharides added: In addition to D-allose, glucose and D-altros as rare saccharides belonging to ketose were added, as other comparative saccharides, to the addition target cells. Also, D-fructose was employed as a control.
# (§10) (3) Experiment method: A number 3,000-5,000 of addition target cells per type were inoculated into a multi-well plastic dish (hereinafter referred to as a “well”) having 96 wells, and were cultured for 4 to 5 days in a culture medium supplemented with 5 to 10% of Fetal Bovine Serum (FBS) depending on the cell types. […] To examine the influence upon the cell proliferation, the cell number was measured in units of 24 hours by using the MTT method described below. […]
# (§11) (2) Test method: The cells were treated with TEP to prepare a cell suspension liquid. […] The absorbance of the liquid was measured at a wavelength of 570 to 600 nm by using a spectrophotometer. […]
# [5] = system: uterine cancer cells (He1a); test: proliferation of cultured cells, MTT method, He1a; type: cell-based, human; details: saccharide 50 mM, 4 to 5 days
# Method: as §7, §8, §9, §10, §11
Compound,basic secretion of MCP-1 [1],cytokine-stimulated secretion of MCP-1 ([1]; IL-1β 1 ng/mL pretreatment 1 hour),KS1 proliferation inhibitory effect (KS-1),KS1 proliferation inhibitory effect (KS-1; listed as allose),inhibition rate of second peak of glutamate release (hyperperfusion after ischemia) ([2]; administration of D-allose),inhibition rate of first peak of glutamate release (with ischemia) ([2]; pre-administration of D-allose),THP1 proliferation inhibitory effect (THP-1),glutamate concentration during the reperfusion [3],"glutamate concentration during the ischemia ([3]; 45 minutes ischemia, versus control)",proliferation of HaCaT cells (cell number over time) [4],proliferation of He1a cells (cell number over time) [5]
O=C(CO)[C@H](O)[C@H](O)[C@H](O)CO [D-psicose],able to inhibit the secretion of MCP-1 depending on the concentration; also recorded: has a MCP-1 secretion inhibitory effect,inhibited by added D-psicose depending on the concentration; also recorded: inhibits secretion of MCP-1,,,,,,,,,
O=C[C@H](O)[C@H](O)[C@H](O)[C@H](O)CO [D-allose],,,having the inhibitory effect,showed a cell proliferation inhibitory effect at 59 mM,about 90%,about 25%,showed a cell proliferation inhibitory effect at 59 mM,completely inhibited,inhibited in comparison with that in the control,strongly inhibited proliferation; also recorded: has a proliferation inhibitory effect,strongly inhibited proliferation; also recorded: has a proliferation inhibitory effect
